The text below walks through data of US7569208B2, “Diagnostic agents for pancreatic exocrine function” (Tokyo Gas Company Limited, priority 1999, dated 2009).

Data set [1] can be described thus: Solubility / precipitation of phenylalanine in distilled water with or without hydroxypropyl-β-cyclodextrin. The data set is classed as physicochemical. As to conditions: 299 mg of [1-^13C]-phenylalanine in 5 ml distilled water, dissolved at 85° C., cooled to 25° C. The source says:
The increase of solubility of phenylalanine in the presence of hydroxypropyl-β-cyclodextrin confirmed the formation of (1-^13C]-phenylalanine/hydroxypropyl-β-cyclodextrin inclusion complex.

For data set [2] the following is noted: at 25° C.; cited from earlier work.
Data set [3] deals with pancreatic exocrine function. The experiment in a line: 13C breath test after oral administration in olive oil to chronic pancreatitis and control rats (GC-MS). The data set is classed as in vivo, rat. As to the method: A ^13C-FDL breath test was carried out wherein ^13C-FDL was orally administered to chronic pancreatitis and control rats and the time course of the ^13C concentration in the exhaled CO2 after the administration was measured.
(§1) According to Mundlos et al. (Mundlos et al., Pancreas, 1:29 (1986)), the chronic pancreatitis rats were prepared by injecting oleic acid into the pancreatic duct of Wistar male rats of 5 weeks old and kept for 3 weeks. Rats in which midline incision was made on the abdomen were used as the control.
The chronic pancreatitis and control rats of 8 weeks old, which fasted overnight, were fixed without anesthesia in a rat holder for a microwave irradiation apparatus. The breath was collected at a rate of about 100 to 300 ml/min using a CO2 meter (CAPSTER-100) to monitor the CO2 concentration. […]
The breath was taken out as a sample immediately before the administration and at every hour for 5 hours after the administration and the ^13C concentration in the exhaled CO2 was analyzed by a gas chromatography-mass spectrometer (GC-MS). The analytic conditions for GC-MS are as follows. The CO2 concentration in the collected breath was held at 3±0.5%. GC-MS conditions:
Assuming that the isotopic abundance of oxygen is the same as that which is naturally occurring, ^13C concentration was calculated from the peak areas of the ions m/z=45 and 46 according to the following equation: […]
Δ^13C (‰) was calculated from the ^13C concentration in the exhaled CO2 at each time point (^13C tmin) and the ^13C concentration in standard CO2 (^13C std) according to the following equation: Δ^13C (‰)=[(^13C tmin−^13C 0 min)/^13C std]×1000 12.2 Results

In data set [4] the test system is pancreatic exocrine function. In words: 13C breath test after oral administration to oleic acid-induced chronic pancreatitis and control rats (13CO2 analyzer). The data set is classed as in vivo, rat. To be noted: for Δ^13C (‰) value in exhaled CO2: 75 mg/kg oral, at 10 minutes. As to the method:
^13C-labeled cyclodextrin breath test was carried out wherein ^13C-labeled cyclodextrin prepared in Example 1 was orally administered to chronic pancreatitis and control rats and the time course of the ^13C concentration in the exhaled CO2 after the administration was measured.
as §1
The chronic pancreatitis and control rats of 8 weeks old, which fasted overnight, were fixed without anesthesia in a rat holder for a microwave irradiation apparatus. The breath was collected at a rate of about 100 to 300 ml/min using a stroke pump (Variable Stroke Pump VS-500, Shibata Kagaku Kogyo) and introduced directly to a flow cell of a ^13CO2 analyzer EX-130S (Nihon Bunko) to measure ^13C atom % and the carbon dioxide gas concentration continuously. A Perma Pure drier (MD-050-12P, Perma Pure Inc.) was set between the rat holder and the stroke pump to remove out water vapor in the breath. After the CO2 concentration was stabilized, the rat was once removed out of the rat holder and an aqueous solution of ^13C-labeled cyclodextrin was administered (75 mg/kg, 5 ml/kg) into the stomach using an oral sonde.
Δ^13C (‰) was calculated from the ^13C concentration in the exhaled CO2 at each time point (^13C tmin) and the ^13C concentration in standard CO2 (^13C std) according to the following equation: Δ^13C (‰)=[(^13C tmin−^13C 0 min)/^13C std]×1000

In the case of `N[C@@H](C[13c]1ccccc1)C(=O)O` [(1-^13C]-phenylalanine, [1-^13C]-phenylalanine], in data set [1], the “precipitation of phenylalanine when the solution was allowed to cool to 25° C.” value is reported as “phenylalanine was precipitated”.

`N[C@@H](Cc1ccccc1)C(=O)O` [phenylalanine]: in data set [2], the solubility is 148 mg/5 ml.

With ^13C-dilaurylfluorescein [^13C-FDL], in data set [3] (160 mg/kg oral in olive oil, at each time point for 5 hours (FIG. 10)), the “Δ^13C (‰) values of chronic pancreatitis rats compared with control rats” value is on record as “smaller than the control rats”. Also, the “Δ^13C (‰) value in exhaled CO2” value in data set [3] (chronic pancreatitis rats, 160 mg/kg oral in olive oil, at 3 hours) is 42.0±21.3 ‰; in data set [3] (chronic pancreatitis rats, 160 mg/kg oral in olive oil, at 5 hours), 95.4±47.1 ‰; in data set [3] (control rats, 160 mg/kg oral in olive oil, at 3 hours), 153.3±22.8 ‰; in data set [3] (control rats, 160 mg/kg oral in olive oil, at 5 hours) it was 236.3±12.4 ‰.

Turning to ^13C-dioctanoylfluorescein [^13C-FDO], in data set [3] (200 mg/kg oral in olive oil, at each time point for 5 hours (FIG. 11)), the “Δ^13C (‰) values of chronic pancreatitis rats compared with control rats” value is listed as “smaller than the control rats”. Further, the “Δ^13C (‰) value in exhaled CO2” value in data set [3] (chronic pancreatitis rats, 200 mg/kg oral in olive oil, at 1 hour) was 2.7±3.8 ‰; in data set [3] (chronic pancreatitis rats, 200 mg/kg oral in olive oil, at 3 hours) it was 18.4±12.1 ‰; in data set [3] (chronic pancreatitis rats, 200 mg/kg oral in olive oil, at 4 hours), 15.2±13.4 ‰; in data set [3] (chronic pancreatitis rats, 200 mg/kg oral in olive oil, at 5 hours), 20.6±11.2 ‰; in data set [3] (control rats, 200 mg/kg oral in olive oil, at 1 hour), 46.3±11.5 ‰; in data set [3] (control rats, 200 mg/kg oral in olive oil, at 3 hours) it was 60.6±12.7 ‰. The “Δ^13C (‰) value in exhaled CO2” value is 88.7±8.2 ‰ in data set [3] (control rats, 200 mg/kg oral in olive oil, at 4 hours) and 73.6±14.1 ‰ in data set [3] (control rats, 200 mg/kg oral in olive oil, at 5 hours).

Regarding “galactosyl ^13C-maltohexaose [galactosyl ^13C-labeled maltohexaose]”, the results for the Δ^13C (‰) value in exhaled CO2 in data set [4] (chronic pancreatitis rats) and in data set [4] (control rats) were 18.9 ± 17 ‰ and 95.6 ± 42.4 ‰, respectively. The “increase in Δ^13C (‰) value of chronic pancreatitis rats compared with control rats” value in data set [4] (galactosyl ^13C-maltohexaose 75 mg/kg oral, for 30 minutes (FIG. 4)) is given as “smaller than the control rats”.
